Patent US20250382301A1 (Arizona Board of Regents on Behalf of the University of …, priority 2022, published 2025)

These compounds were tested on WNT signaling (TopGFP reporter in Human Colonic Epithelial Cells (HCEC)) (assay: WNT Reporter Assay (TopGFP reporter)). Conditions: Homo sapiens, stimulated with 10 μM CHIR99021, 24 hours, TopGFP/mCherry.
Format: cell-based
Experimental: WNT Reporter Assay: Human Colonic Epithelial Cells (HCEC) were cultured using 1×DMEM supplemented with 1% penicillin/streptomycin, 1% Glutamax, and 10% fetal bovine serum in 5% CO2 at 37° C. These cells were previously engineered to express the TopGFP reporter (Addgene #24304) using second generation lentiviral techniques. For the Wnt reporter assay, cells were seeded at 2000 cells per well in a 384-well black screenstar imaging microplates (Greiner #781866) and allowed to adhere overnight. The following day cells were stimulated to induce the Wnt pathway using 10 μM CHIR99021 (Selleck #S1263). […] Cells were incubated for 24 hours before fixing for 30 minutes with 4% paraformaldehyde/sucrose solution. Cells were permeabilized with 0.1% triton-x in PBS for 10 minutes and stained for DAPI for 30 minutes. Plates were imaged on a Nikon Ti2 Eclipse fluorescent microscope for DAPI, GFP, and mCherry. Using Nikon Elements software for analysis, nuclei were segmented based on DAPI and mean object intensity per cell for both TopGFP and the internal control (mCherry) was measured. To calculate the amount of Wnt activity, we took the mean intensity of TopGFP and divided it by the mean intensity of mCherry per cell to normalize individual cells. Curves and EC50s were plotted and calculated using Graphpad Prism software.

| Compound | EC50 |
| --- | --- |
| Cc1n[nH]cc1-c1ccc2ncnc(N3CCN(c4ccccn4)CC3)c2c1 [Compound 60, 6-(3-methyl-1H-pyrazol-4-yl)-4-(4-(pyridin-2-yl)piperazin-1-yl)quinazoline] | > 1000 nM |
| Nc1cc(-c2ccc3ncnc(N4CCC(c5ccccc5F)CC4)c3c2)ccn1 [Compound 48, 4-(4-(4-(2-fluorophenyl)piperidin-1-yl)quinazolin-6-yl)pyridin-2-amine] | 100 to 1000 nM |
| Nc1cc(-c2ccc3ncnc(N4CCN(c5cccnc5)CC4)c3c2)ccn1 [Compound 37, 4-(4-(4-(pyridin-3-yl)piperazin-1-yl)quinazolin-6-yl)pyridin-2-amine] | < 100 nM |
| Nc1cc(-c2ccc3ncnc(N4CCN(c5ccccc5F)CC4)c3n2)ccn1 [Compound 19, 4-(4-(4-(2-fluorophenyl)piperazin-1-yl)pyrido[3,2-d]pyrimidin-6-yl)pyridin-2-amine] | < 100 nM |
| COc1cc2c(cc1OC)CN(c1ncnc3ccc(-c4ccnc(N)c4)cc13)CC2 [Compound 35, 4-(4-(6,7-dimethoxy-3,4-dihydroisoquinolin-2(1H)-yl)quinazolin-6-yl)pyridin-2-amine] | 100 to 1000 nM |
| Nc1cc(-c2ccc3ncnc(N4CCN(C(=O)c5ccccc5F)CC4)c3c2)ccn1 [Compound 46, (4-(6-(2-aminopyridin-4-yl)quinazolin-4-yl)piperazin-1-yl)(2-fluorophenyl)methanone] | > 1000 nM |
| Nc1cc(-c2ccc3ncnc(N4CCN(c5nccs5)CC4)c3c2)ccn1 [Compound 50, 4-(4-(4-(thiazol-2-yl)piperazin-1-yl)quinazolin-6-yl)pyridin-2-amine] | < 100 nM |
| Fc1cc(-c2ccc3ncnc(N4CCN(c5ccccn5)CC4)c3c2)ccn1 [Compound 13, 6-(2-fluoropyridin-4-yl)-4-(4-(pyridin-2-yl)piperazin-1-yl)quinazoline] | > 1000 nM |
| C[C@@H]1CN(c2ccccn2)CCN1c1ncnc2ccc(-c3ccnc(N)c3)cc12 [Compound 44, (R)-4-(4-(2-methyl-4-(pyridin-2-yl)piperazin-1-yl)quinazolin-6-yl)pyridin-2-amine] | 100 to 1000 nM |
| Fc1cccnc1N1CCN(c2ncnc3ccc(-c4c[nH]c5ncccc45)cc23)CC1 [Compound 57, 4-(4-(3-fluoropyridin-2-yl)piperazin-1-yl)-6-(1H-pyrrolo[2,3-b]pyridin-3-yl)quinazoline] | < 100 nM |
| Nc1cc(-c2ccc3ncnc(N4CCN(c5ccncc5)CC4)c3c2)ccn1 [Compound 6, 4-(4-(4-(pyridin-4-yl)piperazin-1-yl)quinazolin-6-yl)pyridin-2-amine] | 100 to 1000 nM |
| Nc1cc(-c2ccc3ncnc(N4C[C@H]5C[C@@H]4CN5c4ccccn4)c3c2)ccn1 [Compound 55, 4-(4-((1R,4R)-5-(pyridin-2-yl)-2,5-diazabicyclo[2.2.1]heptan-2-yl)quinazolin-6-yl)pyridin-2-amine] | > 1000 nM |
| Nc1cc(-c2ccc3ncnc(N4CCN(c5ccc(C(F)(F)F)cn5)CC4)c3n2)ccn1 [Compound 16, 4-(4-(4-(5-(trifluoromethyl)pyridin-2-yl)piperazin-1-yl)pyrido[3,2-d]pyrimidin-6-yl)pyridin-2-amine] | < 100 nM |
| Nc1cc(-c2ccc3ncnc(N4CCN(c5ccc(F)cc5F)CC4)c3c2)ccn1 [Compound 39, 4-(4-(4-(2,4-difluorophenyl)piperazin-1-yl)quinazolin-6-yl)pyridin-2-amine] | 100 to 1000 nM |
| Nc1cc(-c2ccc3nccc(N4CCN(c5ccccc5F)CC4)c3n2)ccn1 [Compound 52, 4-(8-(4-(2-fluorophenyl)piperazin-1-yl)-1,5-naphthyridin-2-yl)pyridin-2-amine] | < 100 nM |
| Nc1cc(-c2ccc3ncnc(N4CCC5(CCN(c6ccccn6)C5)CC4)c3c2)ccn1 [Compound 65, 4-(4-(2-(pyridin-2-yl)-2,8-diazaspiro[4.5]decan-8-yl)quinazolin-6-yl)pyridin-2-amine] | < 100 nM |
| Nc1cc(-c2ccc3nccc(N4CCN(c5ccccn5)CC4)c3c2)ccn1 [Compound 29] | < 100 nM |
| Nc1cc(-c2ccc3ncnc(N4CCN(c5ccccc5)CC4)c3c2)ccn1 [Compound 2, 4-(4-(4-phenylpiperazin-1-yl)quinazolin-6-yl)pyridin-2-amine] | < 100 nM |
| Nc1cc(-c2ccc3ncnc(N4CCN(c5ccccc5F)C(=O)C4)c3n2)ccn1 [Compound 67, 4-(6-(2-aminopyridin-4-yl)pyrido[3,2-d]pyrimidin-4-yl)-1-(2-fluorophenyl)piperazin-2-one] | < 100 nM |
| Nc1cc(-c2ccc3ncnc(N4CCN(c5ccccn5)CC4)c3c2)ccn1 [Compound 3, 4-(4-(4-(pyridin-2-yl)piperazin-1-yl)quinazolin-6-yl)pyridin-2-amine] | < 100 nM |
| Nc1cc(-c2ccc3ncnc(N4CCN(c5ncccn5)CC4)c3c2)ccn1 [Compound 10, 4-(4-(4-(pyrimidin-2-yl)piperazin-1-yl)quinazolin-6-yl)pyridin-2-amine] | 100 to 1000 nM |
| Nc1cc(-c2ccc3ncnc(N4CCN(c5ccc(O)cc5)CC4)c3n2)ccn1 [Compound 28, 4-(4-(6-(2-aminopyridin-4-yl)pyrido[3,2-d]pyrimidin-4-yl)piperazin-1-yl)phenol] | < 100 nM |
| FC(F)c1cc(-c2ccc3ncnc(N4CCN(c5ccccn5)CC4)c3c2)ccn1 [Compound 8, 6-(2-(difluoromethyl)pyridin-4-yl)-4-(4-(pyridin-2-yl)piperazin-1-yl)quinazoline] | 100 to 1000 nM |
| Nc1cc(-c2ccc3ncnc(N4CCN(C5COC5)CC4)c3c2)ccn1 [Compound 11, 4-(4-(4-(oxetan-3-yl)piperazin-1-yl)quinazolin-6-yl)pyridin-2-amine] | > 1000 nM |
| O=c1ccccn1C1CCN(c2ncnc3ccc(-c4cn[nH]c4)cc23)CC1 [Compound 59, 1-(1-(6-(1H-pyrazol-4-yl)quinazolin-4-yl)piperidin-4-yl)pyridin-2(1H)-one] | < 100 nM |
| Nc1cc(-c2ccc3ncnc(N4CCN(c5ccc(F)cc5)CC4)c3n2)ccn1 [Compound 24, 4-(4-(4-(4-fluorophenyl)piperazin-1-yl)pyrido[3,2-d]pyrimidin-6-yl)pyridin-2-amine] | < 100 nM |
| Nc1cc(-c2ccc3ncnc(N4CCC(c5ccc(F)cc5F)CC4)c3c2)ccn1 [Compound 63, 4-(4-(4-(2,4-difluorophenyl)piperidin-1-yl)quinazolin-6-yl)pyridin-2-amine] | 100 to 1000 nM |
| COc1cc2c(cc1OC)CN(c1ncnc3ccc(-c4cnn(C)c4)cc13)CC2 [Compound 47, 4-(6,7-dimethoxy-3,4-dihydroisoquinolin-2(1H)-yl)-6-(1-methyl-1H-pyrazol-4-yl)quinazoline] | > 1000 nM |

Now from value to compound:

| EC50 | Compound |
| --- | --- |
| 100 to 1000 nM | Nc1cc(-c2ccc3ncnc(N4CCCN(Cc5ccc(F)cc5)CC4)c3c2)ccn1 [Compound 41, 4-(4-(4-(4-fluorobenzyl)-1,4-diazepan-1-yl)quinazolin-6-yl)pyridin-2-amine] |
| 100 to 1000 nM | Cn1cc(-c2ccc3ncnc(N4CCN(c5ccccn5)CC4)c3c2)cn1 [Compound 7, 6-(1-methyl-1H-pyrazol-4-yl)-4-(4-(pyridin-2-yl)piperazin-1-yl)quinazoline] |
| > 1000 nM | Cc1cc(-c2ccc3ncnc(N4CCN(c5ccccn5)CC4)c3c2)ccn1 [Compound 12, 6-(2-methylpyridin-4-yl)-4-(4-(pyridin-2-yl)piperazin-1-yl)quinazoline] |
| < 100 nM | c1ccc(N2CCN(c3ccnc4ccc(-c5cn[nH]c5)cc34)CC2)cc1 [Compound 26, 4-(4-phenylpiperazin-1-yl)-6-(1H-pyrazol-4-yl)quinoline] |
| < 100 nM | c1ccc(N2CCN(c3ncnc4ccc(-c5c[nH]c6ncccc56)cc34)CC2)nc1 [Compound 17, 4-(4-(pyridin-2-yl)piperazin-1-yl)-6-(1H-pyrrolo[2,3-b]pyridin-3-yl)quinazoline] |
| < 100 nM | O=c1ccccn1C1CCN(c2ncnc3ccc(-c4c[nH]c5ncccc45)cc23)CC1 [Compound 58, 1-(1-(6-(1H-pyrrolo[2,3-b]pyridin-3-yl)quinazolin-4-yl)piperidin-4-yl)pyridin-2(1H)-one] |
| 100 to 1000 nM | Nc1cc(-c2ccc3ncnc(N4CCC(n5ccccc5=O)CC4)c3c2)ccn1 [Compound 62, 1-(1-(6-(2-aminopyridin-4-yl)quinazolin-4-yl)piperidin-4-yl)pyridin-2(1H)-one] |
| 100 to 1000 nM | Nc1cc(-c2ccc3ncnc(N4CCN(c5ccc(O)cc5)CC4)c3c2)ccn1 [Compound 27, 4-(4-(6-(2-aminopyridin-4-yl)quinazolin-4-yl)piperazin-1-yl)phenol] |
| > 1000 nM | Cn1cc(-c2ccc3ncnc(N4CCN(Cc5ccc(F)cc5)CC4)c3c2)cn1 [Compound 42, 4-(4-(4-fluorobenzyl)piperazin-1-yl)-6-(1-methyl-1H-pyrazol-4-yl)quinazoline] |
| < 100 nM | Fc1ccc(CN2CCN(c3ncnc4ccc(-c5c[nH]c6ncccc56)cc34)CC2)cc1 [Compound 49, 4-(4-(4-fluorobenzyl)piperazin-1-yl)-6-(1H-pyrrolo[2,3-b]pyridin-3-yl)quinazoline] |
| 100 to 1000 nM | Nc1cc(-c2ccc3ncnc(N4CCC5(CCN(c6ccccn6)CC5)C4)c3c2)ccn1 [Compound 64, 4-(4-(8-(pyridin-2-yl)-2,8-diazaspiro[4.5]decan-2-yl)quinazolin-6-yl)pyridin-2-amine] |
| > 1000 nM | Nc1cc(-c2ccc3ncnc(N4CCCN(c5ccccn5)CC4)c3c2)ccn1 [Compound 56, 4-(4-(4-(pyridin-2-yl)-1,4-diazepan-1-yl)quinazolin-6-yl)pyridin-2-amine] |
| < 100 nM | Nc1cc(-c2ccc3ncnc(N4CCN(c5ncccc5F)CC4)c3c2)ccn1 [Compound 61, 4-(4-(4-(3-fluoropyridin-2-yl)piperazin-1-yl)quinazolin-6-yl)pyridin-2-amine] |

Same assay, conditions: stimulated with 10 μM CHIR99021, 24 hours, TopGFP/mCherry

| EC50 | Compound |
| --- | --- |
| < 100 nM | 6-(1H-pyrazol-3-yl)-4-(4-(pyridin-2-yl)piperazin-1-yl)pyrido[3,2-d]pyrimidine [Compound 18] |
| > 1000 nM | 4-(4-(2-fluorophenyl)piperazin-1-yl)-6-(1-methyl-1H-pyrazol-3-yl)pyrido[3,2-d]pyrimidine [Compound 20] |
